Drawing on US12667538B2, “Vilazodone pharmaceutical composition, preparation method therefor and use thereof” (SHANGHAI YONSUN BIOTECHNOLOGY CO., LTD., priority 2020, dated 2026), this text covers D10, D50 and D90 for one compound.

This data set is described as follows: Particle size and distribution on a laser particle analyzer. In kind it is physicochemical. Particulars: drug substance used for formulas 14-23. As for the experimental part: According to formula 1 shown in Table 1, the raw and auxiliary materials were weighed out and well mixed to obtain the suspension. The particle size was measured on a laser particle analyzer (parameter settings: dispersion medium: water; refractive index of dispersion medium: 1.333; absorbance of sample material: 0.05; refractive index of sample material: 1.711). The particle size morphology of the particles in the ground suspension was observed under a polarized light microscope. The particle size morphology of the solid particles of vilazodone in the suspension under the polarized light microscope is shown in FIG. 2.
The particle size of formulas 3, 4 and 5 and the distribution thereof were measured on a laser particle analyzer using the following parameter settings: dispersion medium: water; refractive index of dispersion medium: 1.333; absorbance of sample material: 0.05; refractive index of sample material: 1.711. The particle size and the distribution of formula 6 were measured on a nano particle size analyzer (NICOMP Particle Sizing Systems) using the following parameter settings: dispersion medium: water; refractive index of dispersion medium: 1.333; viscosity: 0.933 cp; temperature: 23° C.; luminous intensity setting: 300 kHz.
The particle size of formula 7 and the distribution thereof were measured on a laser particle analyzer using the following parameter settings: dispersion medium: water; refractive index of dispersion medium: 1.333; absorbance of sample material: 0.05; refractive index of sample material: 1.711. […]
According to the formulas shown in Table 12, the drug substance of different particle sizes and auxiliary materials were weighed out and well mixed by stirring to form suspensions, and formulas 8-13 were obtained. The particle size and the distribution thereof were measured on a laser particle analyzer using the following parameter settings: dispersion medium: water; refractive index of dispersion medium: 1.333; absorbance of sample material: 0.05; refractive index of sample material: 1.711. […]

Structures are written as SMILES.

Compound `Cl.N#Cc1ccc2[nH]cc(CCCCN3CCN(c4ccc5oc(C(N)=O)cc5c4)CC3)c2c1` [Vilazodone hydrochloride, 2-benzofurancarboxamide, 5-[4-[4-(5-cyano-1H-indol-3-yl)butyl]-1-piperazinyl] hydrochloride (1:1)] came in with a D10 of 8.4 μm, a D50 of 20.6 μm and a D90 of 43.9 μm.
